Test results taken from publication PMC11714206, “Massively Parallel Screening of Toll/Interleukin‐1 Receptor (TIR)‐Derived Peptides Reveals Multiple Toll‐Like Receptors (TLRs)‐Targeting Immunomodulatory Peptides” (Advanced Science, 2024).

Molecular target: T1, MAL^TIR (Homo sapiens, UniProt P58753)
T1 construct: MAL (residues 79–221); 6xHis; made in house; host or cells: E. coli BL21 (DE3)
Assay: T‐Surf phage library (P8 and P3) selection against MAL^TIR, four rounds, NGS read counts
Assay type: binding
Conditions: for P3_MAL Rank (after) / P3_MAL Rank (before): P3 library; for P8_MAL Rank (after) / P8_MAL Rank (before): P8 library; for Population: 4th round of selection against MAL TIR, share of NGS reads
Method: T‐Surf libraries were screened against the immobilized TIR domains of two major human TLR adaptor proteins, MAL^TIR and MyD88^TIR, allowing cross‐species selection of TIR‐binding motifs with 190 946 TIR‐derived peptides in a single binding assay (Scheme 1). Enriched phage pools from the fourth round of selection were analyzed using NGS after barcoding the peptide‐coding regions of the phage pools.
Phage display screening was performed by coating two wells of a 96‐well plate (Maxisorp, Thermo Fisher Scientific) with 100 µL of 5 µg mL^−1 TIR domains overnight; then, the coated wells were blocked with 200 µL of blocking buffer (0.2% BSA in PBS) and set aside for 1 h at 4 °C with gentle shaking. Next, 100 µL of the phage library was added to the wells and incubated for 1 h at room temperature (RT; 20 – 22 °C) with gentle shaking. The plate was washed four times with PBS containing 0.5% Tween‐20; the bound phages were eluted by adding 100 µL of 100 mM HCl to each well. The elute was neutralized with 10 µL of 1.0 M Tris‐HCl (pH 11.0). E. coli TG1 cells were grown to the log phase (A600 = ≈0.6), and 1 mL of the culture was incubated with 100 µL of the eluted phages for 30 min at 37 °C, with shaking at 200 rpm. Next, 1 µL of M13KO7 helper phages was added, followed by incubation for 45 min at 37 °C, with shaking. Subsequently, the cells were transferred to 25 mL of 2× yeast extract tryptone/carbenicillin/kanamycin medium and incubated overnight at 37 °C with shaking at 200 rpm. The amplified phages were precipitated with 20% PEG‐8000/2.5 M NaCl to be used for the next round of selection.
The naïve T‐Surf libraries in P8 and P3 and the enriched phage pools after four rounds were barcoded for NGS as previously described.^[ [59] ^] Briefly, 5 µL of the phage pool was used as a template for 20 cycles of a 50 µL PCR reaction using […] each of forward and reverse barcoded primers and PrimeSTAR Max DNA Polymerase. The PCR products were purified using Expin Gel SV (GeneAll). The NGS samples were quantified using qPCR, following the qPCR Quantification Protocol Guide (KAPA Library Quantification kits for Illumina Sequencing Platform), and qualified using the TapeStation High Sensitivity D1000 ScreenTape (Agilent Technologies). The indexed libraries were further sequenced by Macrogen (Seoul, Republic of Korea) using the NovaSeq platform (Illumina) with 100 bp paired‐end reads. The reads were demultiplexed by barcodes and filtered for an average Phred quality score of at least 30, followed by trimming the flanking consensus sequences using Cutadapt (version 2.3). Peptide sequence populations were analyzed according to the read counts.

[1] = 4R selection against MAL, rank after grouping
[2] = 4R selection against MAL, rank before grouping
[3] = selection against MAL TIR, rank by count after grouping
[4] = selection against MAL TIR, rank by count before grouping
[5] = P8_MAL pool: P8 T-Surf phage library
[6] = selection against MAL, rank after grouping
[7] = selection against MAL, rank before grouping
[8] = selection against MAL, rank by count after grouping
[9] = selection against MAL, rank by count before grouping
[10] = P8_MAL: rank by count after grouping
[11] = P8_MAL: rank by count before grouping
[12] = P3_MAL pool: P3 T-Surf phage library
[13] = P3_MAL: rank by count after grouping
[14] = P3_MAL: rank by count before grouping

T1 sequence (P58753 79-221): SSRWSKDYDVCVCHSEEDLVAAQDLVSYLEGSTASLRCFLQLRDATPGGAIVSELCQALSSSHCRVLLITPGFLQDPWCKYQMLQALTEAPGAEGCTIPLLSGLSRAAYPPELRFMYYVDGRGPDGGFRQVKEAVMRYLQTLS

YAFTSSLHRYLVQRGV
P3_MAL Rank (after) [1]: 592 | P3_MAL Rank (before) [2]: 1481

AFLYTFLNTLTHPTNF
P8_MAL Rank (after) [3]: 209 | P8_MAL Rank (before) [4]: 1867

WFYERLVSLILRDSKV
Population [5]: 0.00309%

ESIIYQLHRSSERVAN
P3_MAL Rank (after) [6]: 501 | P3_MAL Rank (before) [7]: 2075

AFRYTFLIILTDPTNF
P8_MAL Rank (after) [1]: 599 | P8_MAL Rank (before) [2]: 1916

FLNFRGLVVRNYFLVH
P3_MAL Rank (after) [8]: 720 | P3_MAL Rank (before) [9]: 1146

YNFISHLYAALQRKHVET
P3_MAL Rank (after) [3]: 253 | P3_MAL Rank (before) [4]: 754

PNLRTTLMTSPMRTKT
P3_MAL Rank (after) [1]: 656 | P3_MAL Rank (before) [2]: 2673

ESGKLASGAGKSGQT
P3_MAL Rank (after) [1]: 598 | P3_MAL Rank (before) [2]: 2037

TFLGHLYNALVQAGI
P8_MAL Rank (after) [6]: 498 | P8_MAL Rank (before) [7]: 2582

RNSVAYLFQALADKGI
P8_MAL Rank (after) [3]: 270 | P8_MAL Rank (before) [4]: 2247

REFIKKIILWMNPKIV
Rank (after) [10]: 109 | Rank (before) [11]: 2531

HLFCIQLKSILGETSF
P8_MAL Rank (after) [6]: 506 | P8_MAL Rank (before) [7]: 2428

NQWRNALTAAANLSVC
P3_MAL Rank (after) [1]: 610 | P3_MAL Rank (before) [2]: 3370

AFLYTFLISLTHPTNF
Population [5]: 0.00402%

KHSNNDQKWAETASRK
P3_MAL Rank (after) [8]: 765 | P3_MAL Rank (before) [9]: 3469

WFYERLLSRILRDTKV
Rank (after) [10]: 119 | Rank (before) [11]: 1249

WSLFTVRSVLYAMSPA
P8_MAL Rank (after) [6]: 518 | P8_MAL Rank (before) [7]: 1407

DTKLKKCESIAPELLL
P8_MAL Rank (after) [3]: 204 | P8_MAL Rank (before) [4]: 2014

SSFREGLWRPPELSEK
P3_MAL Rank (after) [8]: 748 | P3_MAL Rank (before) [9]: 3167

LQNHCKLALTKVANLV
P3_MAL Rank (after) [3]: 230 | P3_MAL Rank (before) [4]: 2137

LFLGESLKLLRRSDGR
P8_MAL Rank (after) [1]: 652 | P8_MAL Rank (before) [2]: 2150

SSFREGLWRLLELIKK
Population [12]: 0.00488%

RNFAGQLAGLTLQNGDEGK
P3_MAL Rank (after) [1]: 607 | P3_MAL Rank (before) [2]: 2604

SSFREGLWRLLGLIKK
P3_MAL Rank (after) [8]: 680 | P3_MAL Rank (before) [9]: 3140

WFYERLVSLIMRATKV
Rank (after) [10]: 117 | Rank (before) [11]: 1222

AFLYTFLLNLTHQPTF
P8_MAL Rank (after) [6]: 485 | P8_MAL Rank (before) [7]: 1831

KPSVSGPEKSWHFYL
P3_MAL Rank (after) [1]: 660 | P3_MAL Rank (before) [2]: 3467

RLLKWKEALHQFIAG
P3_MAL Rank (after) [3]: 264 | P3_MAL Rank (before) [4]: 2518

PNLRTKLLNSLMRTKT
P3_MAL Rank (after) [3]: 273 | P3_MAL Rank (before) [4]: 2682

YAFTGHLHRYLVRRSA
P3_MAL Rank (after) [6]: 561 | P3_MAL Rank (before) [7]: 1392

AFFCTQLLNVLRKPTI
P8_MAL Rank (after) [1]: 655 | P8_MAL Rank (before) [2]: 1590

YAFTGHLHSYLVQRGV
Population [12]: 0.00338%

WFYERLVSLILRIPK
Rank (after) [10]: 188 | Rank (before) [11]: 742

YNLISQLYEALHLNRI
P3_MAL Rank (after) [1]: 645 | P3_MAL Rank (before) [2]: 1587

NGYGSELIKEIVDTGV
P3_MAL Rank (after) [8]: 702 | P3_MAL Rank (before) [9]: 3249

ESILNQLRRSSQSMR
P3_MAL Rank (after) [3]: 202 | P3_MAL Rank (before) [4]: 2061

LKVESWRRAPEKAGKL
Rank (after) [13]: 457 | Rank (before) [14]: 2263

WFWNNLKYALPLRYDP
Rank (after) [13]: 451 | Rank (before) [14]: 1266

NQRRNAVTAAAKLSGC
Rank (after) [13]: 469 | Rank (before) [14]: 3476

WFYERLVNLILRDTIV
P8_MAL Rank (after) [1]: 668 | P8_MAL Rank (before) [2]: 1241

PDKDKGGENAFINNIV
P3_MAL Rank (after) [6]: 488 | P3_MAL Rank (before) [7]: 2636

NQCSNALTGAAILSGW
P3_MAL Rank (after) [1]: 641 | P3_MAL Rank (before) [2]: 3329

SEFIQKIILWMNQTNV
Rank (after) [10]: 440 | Rank (before) [11]: 2473

RHNFIGYLYQALYRIG
P8_MAL Rank (after) [8]: 723 | P8_MAL Rank (before) [9]: 2174

PNLRTKVLAYLNRTKT
P3_MAL Rank (after) [3]: 240 | P3_MAL Rank (before) [4]: 2701

RLLKWKEALKQRAL
P3_MAL Rank (after) [6]: 518 | P3_MAL Rank (before) [7]: 2525

SSFREGLWHLLELTKT
P3_MAL Rank (after) [6]: 525 | P3_MAL Rank (before) [7]: 3171

AFLYNFFNDLTHPTIY
P8_MAL Rank (after) [1]: 582 | P8_MAL Rank (before) [2]: 1890

ARFKDMIINKWRTALT
P8_MAL Rank (after) [3]: 195 | P8_MAL Rank (before) [4]: 869

AFLYTFLINDPSDQF
P8_MAL Rank (after) [3]: 214 | P8_MAL Rank (before) [4]: 1836

SLRNKLLSHLLEEFKS
Rank (after) [13]: 418 | Rank (before) [14]: 3066

AFFGEQVSPVLGKPTM
Rank (after) [10]: 426 | Rank (before) [11]: 1748

RNFGNSCVPCWANRR
Rank (after) [10]: 392 | Rank (before) [11]: 2239

KCFWVTLLYALHRNPR
Rank (after) [13]: 465 | Rank (before) [14]: 3483

PFFWAQLKSLLRNPTS
P8_MAL Rank (after) [6]: 574 | P8_MAL Rank (before) [7]: 2320

KNLFHELVIKNIRTFM
P3_MAL Rank (after) [8]: 696 | P3_MAL Rank (before) [9]: 3747

WFYDRIVSLNGRDKQV
P8_MAL Rank (after) [8]: 711 | P8_MAL Rank (before) [9]: 1142

YAFTGHLHRYLVQRA
Rank (after) [13]: 137 | Rank (before) [14]: 398

AFPDTFLIKLPHPTNV
P8_MAL Rank (after) [1]: 611 | P8_MAL Rank (before) [2]: 1918

WFYEPLVSQITRDTKV
P8_MAL Rank (after) [1]: 586 | P8_MAL Rank (before) [2]: 1294

KELEKYQLAILERDFQ
P3_MAL Rank (after) [6]: 489 | P3_MAL Rank (before) [7]: 3596

KIWGWRDALSRNPH
P3_MAL Rank (after) [8]: 762 | P3_MAL Rank (before) [9]: 3640

LFYERLVSLMLRDTKG
P8_MAL Rank (after) [3]: 274 | P8_MAL Rank (before) [4]: 1105

AFFWARLQSVLGNPTM
P8_MAL Rank (after) [3]: 243 | P8_MAL Rank (before) [4]: 1654

PNLRTKVLNYLMRSKT
Population [12]: 0.00451%
